Results on one molecule are retold here after PMC11162475, “Rule-based omics mining reveals antimicrobial macrocyclic peptides against drug-resistant clinical isolates” (Nature Communications, 2024).

Converted amounts (≈) assume the structure as drawn. Bounds are passed on as bounds.

What all share (type): cell-based
One data set deals with Bacillus subtilis 168. The experiment in a line: microbe, parasite or virus in culture. The conditions noted are these: 168, 20 h. The method, then:
(§1) For MIC determination, Staphylococcus aureus ATCC25923, Bacillus subtilis 168, Micrococcus luteus DSM1790, Enterococcus faecalis OG1RF, Enterococcus faecium MCC2763, Escherichia coli DH5α and Pseudomonas aeruginosa PAO1 were used as indicator strains. Nisin and vancomycin were used as positive controls. A dilution series of massatide A, massatide B, vancomycin (16, 8, 4, 2, 1, 0.5, 0.25, 0.125, 0.0625, 0.0313 μg/mL) and sistertide A1, kebanetide A1, kebanetide A2, nisin (64, 32, 16, 8, 4, 2, 1, 0.5, 0.25, 0.125 μg/mL) were prepared in 96-well plate from 1–10th column. The indicator strains were added to the compound-containing well. The indicator strain culture with no antibiotics was prepared in the 11th column. The 12th column was filled with 200 μL empty MHB medium. The 96-well plate was incubated at 37 °C for 20 h (30 °C for M. luteus and B. subtilis). The OD600 was detected on MULTISKAN Sky (Thermo Scientific) and MIC values were determined. The MIC values of clinical isolates were determined by Sichuan Primed Shines Bio-tech Co., Ltd. (China) following similar protocol. Levofloxacin was used as a positive control.

The subject of data set [1] is Enterococcus faecalis OG1RF. The experiment in a line: microbe, parasite or virus in culture. The conditions noted are these: OG1RF, 20 h. The method, then:
as §1

Data set [2] relates to Enterococcus faecium MCC2763. In words: microbe, parasite or virus in culture. The conditions noted are these: MCC2763, 20 h. The method, then:
as §1

The test system of data set [3] is Micrococcus luteus DSM1790. In words: microbe, parasite or virus in culture. The conditions noted are these: DSM1790, 20 h. The method, then: as §1
For data set [4], the system named is Staphylococcus aureus ATCC25923. In words: microbe, parasite or virus in culture. The conditions noted are these: ATCC25923, 20 h. The method, then: as §1
Data set [5] deals with Micrococcus luteus DSM1790. In words: Kirby-Bauer assay, zone of inhibition (agar well). The following applies: M. luteus DSM1790; 10 μL DMSO stock (3.2 or 1.6 mg/mL) in well of soft LB agar, 30 °C, 20 h. Here is the method: (§2) The stock solution of massatide A (1) and B (1a) 3.2 mg/mL were prepared in DMSO. 40 μL overnight culture of Micrococcus luteus DSM1790 was added to 20 mL soft Luria-Bertani agar (1% agar), and then poured into a plate. 10 μL tip was used to make two wells on the plate. 10 μL massatide A (1) or B (1a) solution was added in one of the wells, while in the other well, 10 μL DMSO was added as a negative control. The plates were incubated at 30 °C for 20 h to observe the zone of inhibition. Staphylococcus aureus ATCC25923 was also used to observe the inhibition zone using a similar method. The only difference is incubating at 37 °C. Stock solutions of sistertide A1, kebanetide A1 and A2 were 3.2 mg/mL, 1.6 mg/mL and 1.6 mg/mL, respectively. The method to observe the activity of these compounds individually was the same as that of massatide.

The test system of data set [6] is Staphylococcus aureus ATCC25923. In words: Kirby-Bauer assay, zone of inhibition (agar well). The following applies: S. aureus ATCC25923; 10 μL of 3.2 mg/mL DMSO stock in well of soft LB agar, 37 °C, 20 h. Here is the method:
as §2

The nature of data set [7]: Mammalian cytotoxicity, CCK-8 assay. The conditions noted are these: human. Here is the method:
(§3) Bioactivity assay of the crude extract
(§4) Protease stability of massatide A
(§5) Thermal stability of massatide A […]
(§6) and 1% penicillin -streptomycin. […]
(§7) and CO 2-controllable incubator with 5% CO 2. All the cell experiments were performed […]
(§8) Cell viability was determined by the CCK -8 assay. HeLa and Hek -293T cells were […]
(§9) µg/ml. At the end of the fixed incubation period (24 h), cells were washed with PBS to remove excess compound. We added 100 µl fresh medium and 10 µl CCK-8 reagent.
(§10) After 2 h incubation at 37°C, absorbance at 450 nm was recorded using a microplate reader. All experiments were performed in triplicate (n=3 independent experiments).
(§11) Growth kinetics of S. aureus
(§12) Massatide A or B was prepared in a 96-well plate at the concentration of 8×MIC, 4×MIC, 2×MIC, 1×MIC and 0.5×MIC , respectively. The MHB medium with no compound was used as a control. Then, the overnight culture of S. aureus ATCC 25923 cells was added to the medium at 1:1,000. The plate was incubated with shaking in SpectraMax iD3 (MOLECULAR DEVICES) at 30 ℃. OD600 was measured every 30 min for 36 hours. To analyze the lysis, 1mL of S. aureus ATCC 25923 culture (OD600 1.0) was treated with massatide A or vancomycin (10×MIC) for 24h. An untreated sample was used as a negative control.
(§13) Time-dependent killing assay
(§14) An overnight culture of S. aureus ATCC 25923 cells was diluted at 1:10,000 in MHB medium and incubated at 37 ℃, 200 rpm for 2 hours to reach the early exponential.
(§15) Then, massatide A or vancomycin was added to the culture at the concentration of 10×MIC. Bacteria were still cultivated at 37 ℃, 200 rpm. Culture with no antibiotics was used as a negative control. 10 μL aliquots were removed at intervals, centrifuged, and resuspended in 1 ml PBS. Serially diluted (10-fold) suspensions were plated on MHB agar and incubated at 37 ℃ overnight for counting of colony-forming units.
(§16) Experiments were performed in triplicate.
(§17) Sequential culturing of S. aureus ATCC 25923 was performed in the presence of a subinhibitory concentration of massatide A to observe whether the resistance developed. […]

A further data set deals with HeLa cells. In words: Mammalian cytotoxicity, CCK-8 assay. The method, then: as §3, §4, §5, §6, §7, §8, §9, §10, §11, §12, §13, §14, §15, §16, §17
Another data set has as its system Escherichia coli DH5α. The following applies: DH5α, 20 h. Here is the method:
as §1

Data set [8] concerns Pseudomonas aeruginosa PAO1. The following applies: PAO1, 20 h. The method, then: as §1

The IC50 is the concentration needed to halve the response being measured. The low end stands for higher potency, the high end for lower potency.

Take `C/C=C1\NC(=O)C(N(C)C)C(C)SC[C@@H](C(=O)N/C(=C\C)C(=O)N[C@H](C(=O)N[C@@H](C)C(=O)N[C@H](C)C(=O)N[C@@H](Cc2ccccc2)C(=O)N[C@@H](C)C(=O)NC2C(=O)NCC(=O)N[C@@H](Cc3ccc(O)cc3)C(=O)N[C@@H](Cc3ccccc3)C(=O)N[C@H](C)C(=O)N/C=C\SC2C)C(C)C)NC(=O)[C@@H]2CCCN2C(=O)[C@H](C(C)C)NC1=O` (some centres unmarked) [Massatide B (1a), massatide B]: the MIC was 4 µg/mL (≈ 2.45 µM) with Bacillus subtilis 168; 4 µg/mL (≈ 2.45 µM) in data set [1]; 4 µg/mL (≈ 2.45 µM) in [2]; 0.25 µg/mL (≈ 0.153 µM) in data set [3]; 1 µg/mL (≈ 0.612 µM) in [4]; over 64 µg/mL with Escherichia coli DH5α. In data set [8], the MIC is over 64 µg/mL. Besides, the “inhibitory activity (zone of inhibition)” value in data set [5] and in data set [6] was “strong inhibitory activity” in each case. The molecule further displayed an IC50 at 24 h in data set [7] of over 200 µg/mL. Further, the “cytotoxicity against Hela cells” value with HeLa cells is “did not exhibit any significant cytotoxicity”.
